From the supplement of paper PMC11061612

What was measured:
Assay in all cases: combination Emax (second highest fraction inhibited in the dose matrix, 72 h); higher = more inhibition; extreme values may be limits of the assay
[1] = system: C-33-A (Cervical Carcinoma)
Summary of the method: (§1)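 Bliss excess equals the observed combination effect minus the expected value EA + EB − EA·EB, where EA and EB are the effects of each agent alone. Combination Emax is the second-highest inhibition within the matrix. Inhibition was scaled from CellTiter-Glo 2.0 luminescence, with 0 set by vehicle wells and 1 by blank wells, after 72 hours of two-drug dosing of cells plated in 1536-well plates.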

[2] = system: CPC-N (Small Cell Lung Carcinoma)
Summary of the method: as §1

[3] = system: DBTRG-05MG (Glioblastoma)
Summary of the method: as §1

[4] = system: KP-4 (Pancreatic Carcinoma)
Summary of the method: as §1

[5] = system: MS-1 (Small Cell Lung Carcinoma)
Summary of the method: as §1

[6] = system: NAMALWA (Burkitt's Lymphoma)
Summary of the method: as §1

[7] = system: NCI-H1963 (Small Cell Lung Carcinoma)
Summary of the method: as §1

NCI-H226 (Mesothelioma) = system: NCI-H226 (Mesothelioma)
Summary of the method: as §1

[8] = system: NMC-G1 (Low Grade Glioma)
Summary of the method: as §1

[9] = system: OAW-28 (Ovarian Carcinoma)
Summary of the method: as §1

[10] = system: P30-OHK (B-Lymphoblastic Leukemia)
Summary of the method: as §1

[11] = system: PA-TU-8988T (Pancreatic Carcinoma)
Summary of the method: as §1

[12] = system: Raji (Burkitt's Lymphoma)
Summary of the method: as §1

[13] = system: SAT (Head and Neck Carcinoma)
Summary of the method: as §1

[14] = system: SCC-4 (Oral Cavity Carcinoma)
Summary of the method: as §1

SK-N-SH (Neuroblastoma) = system: SK-N-SH (Neuroblastoma)
Summary of the method: as §1

[15] = system: T84 (Colorectal Carcinoma)
Summary of the method: as §1

[16] = system: TUR (Acute Myeloid Leukemia)
Summary of the method: as §1

WM35 (Melanoma) = system: WM35 (Melanoma)
Summary of the method: as §1

[17] = system: ZR-75-30 (Breast Carcinoma)
Summary of the method: as §1

Row | Compound | combination Emax [1] | combination Emax [2] | combination Emax [3] | combination Emax [4] | combination Emax [5] | combination Emax [6] | combination Emax [7] | combination Emax (NCI-H226 (Mesothelioma)) | combination Emax [8] | combination Emax [9] | combination Emax [10] | combination Emax [11] | combination Emax [12] | combination Emax [13] | combination Emax [14] | combination Emax (SK-N-SH (Neuroblastoma)) | combination Emax [15] | combination Emax [16] | combination Emax (WM35 (Melanoma)) | combination Emax [17]
1 | CCN(CCO)CCCOc1ccc2c(Nc3cc(CC(=O)Nc4cccc(F)c4)[nH]n3)ncnc2c1 [AZD2811] + C[C@@H]1COCCN1C2=NC(=NC(=C2)C3(CC3)[S@](=N)(=O)C)C4=C5C=CNC5=NC=C4 [AZD6738] (first compound max 1 µM, 7x7, partner max 10 µM) | 0.87 | 0.961 | 0.236 | 0.611 | 0.72 | 0.924 | 0.887 | 0.233 | 0.372 | 0.396 | 0.928 | 0.35 | 0.691 | 0.276 | 0.633 | 0.906 | 0.675 | 0.861 | 0.575 | 0.18
2 | CCN(CCO)CCCOc1ccc2c(Nc3cc(CC(=O)Nc4cccc(F)c4)[nH]n3)ncnc2c1 [AZD2811] + O=C(c1cc(Cc2n[nH]c(=O)c3ccccc23)ccc1F)N1CCN(C(=O)C2CC2)CC1 [Olaparib] (first compound max 1 µM, 7x7, partner max 10 µM) | 0.289 | 0.807 | 0.242 | 0.513 | 0.454 | 0.617 | 0.856 | 0.236 | 0.318 | 0.213 | 0.848 | 0.208 | 0.341 | 0.215 | 0.406 | 0.479 | 0.112 | 0.285 | 0.179 | 0.185
3 | CN(CCO)CC[C@H](CSc1ccccc1)Nc1ccc(S(=O)(=O)NC(=O)c2ccc(N3CCC([C@@H](O)c4ccccc4-c4ccc(Cl)cc4)CC3)cc2)cc1S(=O)(=O)C(F)(F)F [AZD4320] + C=CCn1c(=O)c2cnc(Nc3ccc(N4CCN(C)CC4)cc3)nc2n1-c1cccc(C(C)(C)O)n1 [AZD1775] (first compound max 1 µM, partner max 1 µM) | 0.953 | 0.997 | 0.92 | 0.716 | 1 | 0.982 | 1 | 0.407 | 0.785 | 0.966 | 1 | 0.922 | 0.591 | 0.708 | 0.872 | 0.934 | 0.528 | 0.904 | 0.331 | 0.173
4 | CN(CCO)CC[C@H](CSc1ccccc1)Nc1ccc(S(=O)(=O)NC(=O)c2ccc(N3CCC([C@@H](O)c4ccccc4-c4ccc(Cl)cc4)CC3)cc2)cc1S(=O)(=O)C(F)(F)F [AZD4320] + CCN(CCO)CCCOc1ccc2c(Nc3cc(CC(=O)Nc4cccc(F)c4)[nH]n3)ncnc2c1 [AZD2811] (first compound max 1 µM, 7x7, partner max 1 µM) | 0.151 | 0.971 | 0.775 | 0.368 | 0.597 | 0.48 | 1 | 0.49 | 0.718 | 0.958 | 1 | 0.398 | 0.219 | 0.375 | 0.861 | 0.761 | 0.0513 | 0.255 | 0.136 | 0.173
5 | CN(CCO)CC[C@H](CSc1ccccc1)Nc1ccc(S(=O)(=O)NC(=O)c2ccc(N3CCC([C@@H](O)c4ccccc4-c4ccc(Cl)cc4)CC3)cc2)cc1S(=O)(=O)C(F)(F)F [AZD4320] + CN(C)CCCOc1ccc(-c2ccc3ncc4c(c3c2)n(C2CCOCC2)c(=O)n4C)cn1 [AZD0156] (first compound max 1 µM, 7x7, partner max 1 µM) | 0.126 | 0.967 | 0.745 | 0.101 | 0.68 | 0.158 | 1 | 0.224 | 0.756 | 0.912 | 0.987 | 0.183 | 0.136 | 0.193 | 0.612 | 0.641 | 0.108 | 0.118 | 0.152 | 0.169
6 | CN(CCO)CC[C@H](CSc1ccccc1)Nc1ccc(S(=O)(=O)NC(=O)c2ccc(N3CCC([C@@H](O)c4ccccc4-c4ccc(Cl)cc4)CC3)cc2)cc1S(=O)(=O)C(F)(F)F [AZD4320] + C[C@@H]1COCCN1C2=NC(=NC(=C2)C3(CC3)[S@](=N)(=O)C)C4=C5C=CNC5=NC=C4 [AZD6738] (first compound max 1 µM, 7x7, partner max 10 µM) | 0.928 | 1 | 0.834 | 0.487 | 0.934 | 0.928 | 1 | 0.193 | 0.876 | 0.957 | 1 | 0.319 | 0.768 | 0.587 | 0.872 | 0.988 | 0.719 | 0.971 | 0.367 | 0.286
7 | CN(CCO)CC[C@H](CSc1ccccc1)Nc1ccc(S(=O)(=O)NC(=O)c2ccc(N3CCC([C@@H](O)c4ccccc4-c4ccc(Cl)cc4)CC3)cc2)cc1S(=O)(=O)C(F)(F)F [AZD4320] + C[C@@H](Nc1cc(F)cc(F)c1)c1cc(C(=O)N(C)C)cc2c(=O)cc(N3CCOCC3)oc12 [AZD8186] (first compound max 1 µM, 7x7, partner max 3 µM) | 0.515 | 0.95 | 0.935 | 0.273 | 0.613 | 0.573 | 1 | 0.279 | 0.814 | 0.991 | 0.979 | 0.437 | 0.354 | 0.446 | 0.765 | 0.986 | 0.249 | 0.19 | 0.561 | 0.285
8 | CN(CCO)CC[C@H](CSc1ccccc1)Nc1ccc(S(=O)(=O)NC(=O)c2ccc(N3CCC([C@@H](O)c4ccccc4-c4ccc(Cl)cc4)CC3)cc2)cc1S(=O)(=O)C(F)(F)F [AZD4320] + Cc1cc2ncnn2cc1Nc1ncc2c(n1)n(C1CCOCC1)c(=O)n2C [AZD7648] (first compound max 1 µM, 7x7, partner max 10 µM) | 0.22 | 0.984 | 0.827 | 0.136 | 0.586 | 0.323 | 1 | 0.0544 | 0.759 | 0.899 | 0.982 | 0.23 | 0.202 | 0.305 | 0.737 | 0.828 | 0.0764 | 0.242 | 0.16 | 0.126
9 | CN(CCO)CC[C@H](CSc1ccccc1)Nc1ccc(S(=O)(=O)NC(=O)c2ccc(N3CCC([C@@H](O)c4ccccc4-c4ccc(Cl)cc4)CC3)cc2)cc1S(=O)(=O)C(F)(F)F [AZD4320] + Cn1cnc2c(F)c(Nc3ccc(Br)cc3Cl)c(C(=O)NOCCO)cc21 [Selumetinib] (first compound max 1 µM, 7x7, partner max 3 µM) | 0.531 | 0.955 | 0.702 | 0.254 | 0.533 | 0.512 | 1 | 0.204 | 0.55 | 0.984 | 0.99 | 0.379 | 0.338 | 0.591 | 0.775 | 0.995 | 0.319 | 0.161 | 0.926 | 0.294
10 | Cc1c2c(nn1C)CSCc1cc(n(C)n1)CSc1cc(c3ccccc3c1)OCCCc1c(C(=O)O)n(C)c3c-2c(Cl)ccc13 [AZD5991] + C1CN(CCC1(C(=O)N[C@@H](CCO)C2=CC=C(C=C2)Cl)N)C3=NC=NC4=C3C=CN4 [Capivasertib] (first compound max 1 µM, 7x7, partner max 3 µM) | 0.689 | 0.338 | 0.199 | 0.143 | 0.524 | 1 | 0.43 | 0.2 | 0.214 | 0.224 | 0.71 | 0.34 | 0.692 | 0.738 | 0.334 | 0.387 | 0.0983 | 0.913 | 0.207 | 0.567
11 | Cc1c2c(nn1C)CSCc1cc(n(C)n1)CSc1cc(c3ccccc3c1)OCCCc1c(C(=O)O)n(C)c3c-2c(Cl)ccc13 [AZD5991] + C=CCn1c(=O)c2cnc(Nc3ccc(N4CCN(C)CC4)cc3)nc2n1-c1cccc(C(C)(C)O)n1 [AZD1775] (first compound max 1 µM, partner max 1 µM) | 0.945 | 0.967 | 0.262 | 0.659 | 0.916 | 0.996 | 0.945 | 0.269 | 0.425 | 0.347 | 0.875 | 0.891 | 0.916 | 0.829 | 0.715 | 0.86 | 0.631 | 0.965 | 0.371 | 0.364
